Literature values in patent publication US20080004279A1, “Use of C-Kit Inhibitors for Treating Plasmodium Related Diseases” (priority 2004, published 2008).

How the values were obtained:
[1] = system: GPI-induced NO production in macrophages and vascular endothelial cells

For CCN(CC)CCCC(C)Nc1ccnc2cc(Cl)ccc12 (stereo not drawn) [Chloroquine], the “mode of inhibition of PTK with respect to ATP” value (membrane bound PTK; kinetic studies) is listed as “noncompetitive”, the “mode of inhibition of PTK with respect to peptide substrate” value (membrane bound PTK; kinetic studies) is listed as “competitive inhibitor” and the IC50 (membrane bound PTK; read-out: inhibition of membrane bound PTK activity, IC50, dose dependent, P. falciparum) is listed as 45 µM.

For O=c1c(-c2ccc(O)cc2)coc2cc(O)cc(O)c12 [genistein], the “release of NO by parasite extracts and by GPI” value ([1]; GPI alone or in combination with IFN-gamma) is given as “inhibited”.

In the case of S=C(S)N1CCCC1 [pyrrolidine dithiocarbamate], the “GPI-induced NO production / release” value [1] is given as “blocked”.

For calphostin C, the “GPI-induced NO production / release” value [1] is listed as “blocked”.
